Series [1] in a line: refractive index (Na D-line) (dimensionless); wn = mass fraction of the nth substance listed. The conditions noted are these: 101.3 kPa, Liquid, Standard Abbe refractometry.
Series [2] can be described thus: wn = mass fraction of the nth substance listed. The settings on record: 101.3 kPa, Liquid, Vibrating tube method.

± gives the expanded uncertainty stated by the source.

By refractive index is commonly meant the speed of light in vacuum divided by its phase velocity in the sample. What is called mass density is the mass of a sample divided by its volume.

Take `[Cl-].[Cs+]` [cesium chloride] + O: the refractive index came out at 1.4196 ± 0.002 in series [1] (298.15 K, w1 = 0.6538); 1.4204 ± 0.002 in series [1] (308.15 K, w1 = 0.6693); 1.4218 ± 0.002 in series [1] (318.15 K, w1 = 0.6788). In addition, the mass density in series [2] (298.15 K, w1 = 0.6538) came to 1923.9 ± 3.6 kg/m3; in series [2] (308.15 K, w1 = 0.6693) it was 1946.1 ± 3.6 kg/m3; in series [2] (318.15 K, w1 = 0.6788), 1980.8 ± 3.7 kg/m3.

Regarding `[Cl-].[Na+]` [sodium chloride] + O, the refractive index was 1.3796 ± 0.002 in series [1] (298.15 K, w1 = 0.263); 1.3781 ± 0.002 in series [1] (308.15 K, w1 = 0.2666); 1.3766 ± 0.002 in series [1] (318.15 K, w1 = 0.2669). Also, the mass density in series [2] (298.15 K, w1 = 0.263) worked out at 1197.8 ± 3.1 kg/m3; in series [2] (308.15 K, w1 = 0.2666) it was 1193.6 ± 3.1 kg/m3; in series [2] (318.15 K, w1 = 0.2669), 1188.9 ± 3.1 kg/m3.

These data come from the NIST ThermoML archive (doi:10.1021/acs.jced.7b00023).
